# Measurements taken from US10406098B2, “Injection solution comprising a non-nucleoside reverse-transcriptase inhibitor and poly(lactide-co-glycolide)” (Evonik Roehm GmbH, priority 2015, dated 2019).
# Assay: Release test in phosphate buffer saline pH 7.4 (standard body-fluid single compartment release experiment)
# Format: physicochemical
# Conditions: PBS pH 7.4, samples at 0, 1, 2, 4, 24 and 96 hours, HPLC; comparative statement
# Experimental: Example Performance in a standard body-fluid single compartment release experiment Release Test: 100 ml of phosphate buffer saline pH 7.4 (PBS, British Pharmacopoeia) are given to a 200 ml volumetric flask. […] PBS-buffer is filled up to 200 ml. API release studies were performed in triplicate. Samples (2 ml) for HPLC analysis were taken at 0, 1, 2, 4, 24 and 96 hours and centrifuged for 5 minutes at 13400 rpm the supernatant was injected according to the HPLC method in Table 5. At 2, 4 and 24 hours 100 ml of the dissolution medium were pulled and 100 ml of fresh buffer was added (PBS 7.4). [table]
compound,measurement,value
O=C1Nc2ccc(Cl)cc2[C@@](C#CC2CC2)(C(F)(F)F)O1 [Efavirenz],release / release rate of the active ingredient,much higher
